What is called refractive index is a measure of how strongly the sample bends light. The term speed of sound denotes the propagation velocity of pressure waves in the medium. The term mass density denotes the mass of a sample divided by its volume.

Numbers after ± are expanded uncertainties.

A short description of data set [1]: refractive index (Na D-line) (dimensionless). The following applies: 298.15 K, 101.33 kPa, Liquid.
The conditions of data set [2]: 298.15 K, 101.33 kPa, Liquid; for speed of sound: Sing-around technique in a fixed-path interferometer.

Regarding `CCO` [ethanol], the refractive index in data set [1] is given as 1.3592. Also, in data set [2], the speed of sound was 1143 ± 2 m/s. Moreover, in data set [2] (Vibrating tube method), the mass density came out at 785.22 kg/m3.

Turning to `CCOC(C)(C)CC` [1,1-dimethylpropyl ethyl ether], the refractive index in data set [1] turned out to be 1.38857. Also, the speed of sound in data set [2] amounted to 1096 ± 2 m/s. The mass density in data set [2] (Vibrating tube method) is 760.5 kg/m3.

As for `CCCCCCCC[n+]1ccn(C)c1.[Cl-]` [1-methyl-3-octylimidazolium chloride], the refractive index in data set [1] (Standard Abbe refractometry) is listed as 1.5058 ± 0.00069. Moreover, in data set [2], the mass density is reported as 1007 ± 1.6 kg/m3 and the speed of sound was 1382 ± 4 m/s.

Values taken from the NIST ThermoML archive (doi:10.1021/je0302147).
